# Test results from patent publication US12486241B2, “Cystine diamide analogs for cystinuria” (Rutgers, The State University of New Jersey, priority 2019, dated 2025).
# Where a name gives a salt, the structure may show the parent alone.
# Legend:
# [1] = in water; cited from earlier work
# [2] = system: cell culture; settings: cell culture experiments; cited from earlier work
# [3] = system: rats; settings: cited from earlier work
# [4] = L-cystine crystallization inhibition assay (metastable supersaturated L-cystine solution; L-cystine concentration by fluorescence or cyanide-nitroprusside colorimetric assay); settings: for Ratio (improvement in potency over the control): footnote names L-cystine dimethylester (CDME) as control, LH708 = 1.00; for EC50: test compound in L-cystine supersaturated solution (~3 mM), 25° C. for 72 h, read-out: EC50 (Aqueous Solubility of L-Cystine)
# Description: Example 21 Preparation of the Metastable Supersaturated Solution of L-Cystine and the Cystallizaiton Inhibition Assay
# For the preparation of L-cystine supersaturated solution 70 mg of L-cystine was dissolved in 100 mL of Millipore water (˜3 mM) under reflux at 120° C. for 30 min until the L-cystine was completely dissolved. The supersaturated solution was then allowed to cool slowly with stirring until the oil bath temperature reached 40° C. take about 70 min depending on the lab atmosphere. To determine the L-cystine concentration all test compounds were dissolved in water to form 10 mM stock solution. Five uL of each solution was added to 495 uL L-cystine supersaturated solution. The mixtures were allowed to stand at 25° C. for 72 h. At the end of incubation, the mixtures were centrifuged at 13,000 rpm for 5 min and the supernatants were diluted 10-fold for concentration measurement. To construct the standard curves L-Cystine (2.1 mg) was dissolved in 0.1 M Na2CO3 solution (9 mL) to form a 1 mM solution as a stock solution. Then, 50 uL L-cystine stock solution was diluted to 0.6 mM with 0.1 M Na2CO3 ([…]) solution and to 0.4, 0.2, 0.1, 0.05 mM solution using Millipore water 75, 200, 450 and 950 uL, respectively.
# Fluorescence Assay for the Determination of L-Cystine Concentration
# 10 μL of each L-cystine solutions or test compound diluted mixtures, 100 μL of DTT solution (12.5 mM) in 0.1 M dibasic sodium phosphate solution (1:9), were mixed at r.t. for 10 min, before the addition of 10 μL of iodoacetic acid (100 mM) and continued incubation at r.t. for an additional 15 min. This was then followed by the addition of 20 μL of OPA (100 mM in methanol)/NBC (100 mM in methanol) (1:1). The derivatization was allowed to proceed for 3 min before 3×40 μL of the mixture were placed in a 384-well plate and read at Ex 355 nm/Em 460 nm. The standard curve was repeated for each set of experiments and used to calculate the concentration of L-cystine in each sample.
# Cyanide-Nitroprusside Colorimetric Assay for the Determination of L-Cystine Concentration
# 3×40 μL of each L-cystine solutions or test compound diluted mixtures were placed in a 96-well plate (black, clear bottom). 80 μL of aqueous solution of potassium cyanide (30% w/v) in PBS (pH=7.4) (1:7) was added to each well then the plate was left to shake at 550 rpm for 25 min. 10 μL of aqueous solution of sodium nitroprusside (20% w/v) was added to each well using automated dispenser then the plate was centrifuged immediately at 1500 rpm for 20 sec. Then the UV absorbance was measured at 530 nm using Victor 3 V plate reader. The standard curve was repeated for each plate and used to calculate the concentration of L-cystine in each sample.
smiles,measurement,setting,value
"COC(=O)[C@@H](N)CSSC[C@H](N)C(=O)OC [CDME, L-cystine dimethylester]",Concentration at which crystallization of L-cystine is almost completely inhibited,[1],above 2 mg/L
same,Concentration causing loss of cell viability,[2],approximately 1 mM
same,Dosage demonstrating adverse effects,[3],approximately 500 mg/kg per day
"CN1CCN(C(=O)[C@@H](N)CSSC[C@H](N)C(=O)N2CCN(C)CC2)CC1 [LH708, reference compound]",Ratio (improvement in potency over the control),[4],1.00
same,EC50,[4],42.8 ± 0.7 nM
"N[C@@H](CSSC[C@H](N)C(=O)N1CCNCC1)C(=O)N1CCNCC1 [LH1726, L-Cystine bispiperazide tetrahydrochloride]",Ratio (improvement in potency over the control),[4],0.81
same,EC50,[4],52.6 ± 0.8 nM
"CC(C)(C)N1CCN(C(=O)[C@@H](N)CSSC[C@H](N)C(=O)N2CCN(C(C)(C)C)CC2)CC1 [LH1729, L-Cystine bis(N′-tert-butylpiperazide) tetrahydrochloride]",Ratio (improvement in potency over the control),[4],1.34
same,EC50,[4],32 ± 2.5 nM
"N[C@@H](CSSC[C@H](N)C(=O)N1CCN(C2CC2)CC1)C(=O)N1CCN(C2CC2)CC1 [LH1730, L-Cystine bis(N′-cyclopropylpiperazide) tetrahydrochloride]",Ratio (improvement in potency over the control),[4],0.62
same,EC50,[4],68.8 ± 4.1 nM
"N[C@@H](CSSC[C@H](N)C(=O)N1CCN(C2CCCC2)CC1)C(=O)N1CCN(C2CCCC2)CC1 [LH1731, L-Cystine bis(N′-cyclopentylpiperazide) tetrahydrochloride]",Ratio (improvement in potency over the control),[4],1.08
same,EC50,[4],39.5 ± 1.3 nM
N[C@@H](CSSC[C@H](N)C(=O)N1CCN(c2ccccc2)CC1)C(=O)N1CCN(c2ccccc2)CC1 [LH1732],Ratio (improvement in potency over the control),[4],0.09
same,EC50,[4],500 ± 26.5 nM
"CC1(C)CNCCN1C(=O)[C@@H](N)CSSC[C@H](N)C(=O)N1CCNCC1(C)C [LH1733, L-Cystine bis(2′,2′-dimethylpiperazide) tetrahydrochloride]",Ratio (improvement in potency over the control),[4],0.40
same,EC50,[4],108 ± 3.1 nM
"CN(C)CCNC(=O)[C@@H](N)CSSC[C@H](N)C(=O)NCCN(C)C [LH1734, L-Cystine bis (N′,N′-dimethylethyleneamide) tetrahydrochloride]",Ratio (improvement in potency over the control),[4],0.26
same,EC50,[4],163 ± 10.8 nM
"N[C@@H](CSSC[C@H](N)C(=O)NCCN1CCCC1)C(=O)NCCN1CCCC1 [LH1735, L-Cystine bis(N′-pyrrolidinoethyleneamide) tetrahydrochloride]",Ratio (improvement in potency over the control),[4],0.37
same,EC50,[4],116 ± 6.1 nM
"N[C@@H](CSSC[C@H](N)C(=O)NCCN1CCCCC1)C(=O)NCCN1CCCCC1 [LH1737, L-Cystine bis(N′-piperidinoethyleneamide) tetrahydrochloride]",Ratio (improvement in potency over the control),[4],0.30
same,EC50,[4],143 ± 9.8 nM
"N[C@@H](CSSC[C@H](N)C(=O)NCCN1CCOCC1)C(=O)NCCN1CCOCC1 [LH1738, L-Cystine bis(N′-morpholinoethyleneamide) tetrahydrochloride]",Ratio (improvement in potency over the control),[4],0.54
same,EC50,[4],79.7 ± 7.7 nM
"CN(C)CCCNC(=O)[C@@H](N)CSSC[C@H](N)C(=O)NCCCN(C)C [LH1739, L-Cystine bis (N′,N′-dimethyl-1′,3′-diaminopropaneamide) tetrahydrochloride]",Ratio (improvement in potency over the control),[4],0.37
same,EC50,[4],114 ± 9.4 nM
"N[C@@H](CSSC[C@H](N)C(=O)NCCCN1CCCC1)C(=O)NCCCN1CCCC1 [LH1740, L-Cystine bis(1′-pyrrolidine-3′-aminopropaneamide) tetrahydrochloride]",Ratio (improvement in potency over the control),[4],0.26
same,EC50,[4],163 ± 12.5 nM
"N[C@@H](CSSC[C@H](N)C(=O)NCCCN1CCOCC1)C(=O)NCCCN1CCOCC1 [LH1741, L-Cystine bis (1′-morpholine-3′-aminopropaneamide) tetrahydrochloride]",Ratio (improvement in potency over the control),[4],0.27
same,EC50,[4],160 ± 10.6 nM
"CN(C)C1CCN(C(=O)[C@@H](N)CSSC[C@H](N)C(=O)N2CCC(N(C)C)CC2)CC1 [LH1751, L-Cystine bis(4′-(dimethylamino)-piperidineamide) tetrahydrochloride]",Ratio (improvement in potency over the control),[4],0.84
same,EC50,[4],51.2 ± 3.7 nM
"N[C@@H](CSSC[C@H](N)C(=O)N1CCC(N2CCCC2)CC1)C(=O)N1CCC(N2CCCC2)CC1 [LH1752, L-Cystine bis(4′-(1″-Pyrrolidinyl)piperidine) tetrahydrochloride]",Ratio (improvement in potency over the control),[4],1.17
same,EC50,[4],36.5 ± 1.6 nM
"N[C@@H](CSSC[C@H](N)C(=O)N1CCC2(CCCN2)CC1)C(=O)N1CCC2(CCCN2)CC1 [LH1753, L-Cystine bis(1,8-Diazaspiro[4.5]decan-8-yl) tetrahydrochloride]",Ratio (improvement in potency over the control),[4],1.70
same,EC50,[4],25.1 ± 2.4 nM
"N[C@@H](CSSC[C@H](N)C(=O)N1CCCC12CCNCC2)C(=O)N1CCCC12CCNCC2 [LH1754, L-Cystine bis(1,8-Diazaspiro[4.5]decan-1-yl) tetrahydrochloride]",Ratio (improvement in potency over the control),[4],0.36
same,EC50,[4],120 ± 13 nM
